Assay [1] has as its system KK^Ay mice. As to the kind of experiment: Body weight, food and water intake in KK^Ay mice (Example 3). Format: in vivo. The settings on record: vs model group. From the text: 60 male KK^Ay mice (12 weeks of age, License NO. SCXK (BJ) 2009-0015, Beijing Huafukang Biology Technology Co. Ltd.) and 10 normal male C57BL/6 mice (12 weeks of age, License NO. SCXK (BJ) 2009-0015, Beijing Huafukang Biology Technology Co. Ltd.) were adaptively bred for one week, and then used in the following experiment.
The animals were housed individually in wood-chip-bedded plastic cages. Germ-free and high-fat diets (Beijing Huafukang Biology Technology Co. Ltd.) were used to feed the KK^Ay mice. All the animals had free access to food and water.
60 KK^Ay mice were adaptively bred for 1 week, and then randomly assigned into 6 groups: Model group, Compound (1) group, Compound (2) group, Compound (3) group, Compound (4) group, and metformin group, 10 mice per group. 10 normal C57BL/6 mice were used for the control group. KK^Ay mice were in a high-fat diet, and the control normal mice were in a normal control diet. The control and model groups were hypodermically injected with sterile water, the 6 medicated groups mice were subcutaneously injected with […] Wacao saponins, (Compounds (1), (2), (3) and (4)) respectively, and the positive group was administered metformin by gavage. All mice were administrated at 9 am for 2 weeks and the administration volume is 10 ml/kg BW.
The body weight, food and water intake of each mouse was measured and recorded weekly throughout the course of the experiment. At the end of the experiment, collected the blood and separated serum, fasting blood glucose, insulin levels and insulin sensitivity index (ISI) were measured or calculated in each group. Liver, skeletal muscles of mice in each group were taken and weighed for detecting glycogen levels of the hepatic and muscles after mice being killed.
Compound (1), (2), (3) and (4) were respectively dissolved into sterile water, and sterilized with filtration for Sc. to the medication groups. The metformin was dissolved into sterile water for lg. to the positive control group. Control and model groups animals were injected with sterile water (10 ml/kg BW), Sc. All the animals were treated daily at 9 am for 2 weeks (14 days).
Measurement of food and water intake: 24 hours' food and water intake were measured by gravimetry once a week. It should be paid attention to recycling leakage of small forage into the feed box to ensure the accuracy of food intake.
Determination of body weight: The body weight of mice was measured and recorded once a week.
Results are shown as means±SD. Statistical analysis data were analyzed by using SPSS 10.0 software. Data were evaluated with analysis of variance.

In assay [2] the test system is KK^Ay mice. As to the kind of experiment: Effects of Wacao saponins on glycemia in KK^Ay T2DM mice (Example 2). It counts as in vivo. The source says:
80 male KK^Ay mice (12 weeks of age, License NO. SCXK (BJ) 2009-0015, Beijing Huafukang Biology Technology Co. Ltd.) and 10 male normal C57BL/6 mice (12 weeks of age, License NO. SCXK (BJ) 2009-0015, Beijing Huafukang Biology Technology Co. Ltd.) were adaptively bred for one week, and then used in the pharmacological experiment.
The animals were housed individually in wood-chip-bedded plastic cages. Germ-free and high-fat diets (Beijing Huafukang Biology Technology Co. Ltd.) were used to feed the KK^Ay mice, and the standard laboratory chows were used to feed normal C57BL/6 mice. All the animals had free access to food and water.
80 KK^Ay mice were adaptively bred for 1 week, and then randomly assigned into 8 groups: Model group, Compound (1) group, Compound (2) group, Compound (3) group, Compound (4) group, Compound (7) group, Compound (8) group and metformin group, 10 mice per group. 10 normal C57BL/6 mice were used as the control group. KK^Ay mice were fed with the high-fat diet, and the control group was fed with the normal control diet. The control and model groups were hypodermically injected with sterile water, 6 medicated groups were hypodermically injected with 6 kinds of Wacao saponins, the Compounds (1), (2), (3), (4), (7) and (8), and the positive group (metformin group) was irrigated per oral. All groups were administrated at 9 am for 2 weeks. The administrating volume is 10 ml/kg BW and the administration dosage is shown in Table3.
All mice of the fasting tail blood glucose level were measured weekly using One Touch ULTRA Glucometer (Life Scan Johnson and Johnson, USA).
Each compound of Wacao saponins was dissolved into sterile water and sterilized with filtration for Sc. The metformin was dissolved into sterile water for lg. The control and model group mice were injected with sterile water, Sc. All the animals were treated at 9 am for 2 weeks.
Overnight fasting tail blood glucose level was measured weekly using One Touch ULTRA Glucometer and measured for twice.
Each group was administrated for 2 weeks (14 days) and then the experiment was terminated.
Results are expressed as means±SD. Statistical analysis were analyzed by using SPSS 10.0 software. Data were evaluated with analysis of variance.

This is an account of results in US20160324884A1, “TREATMENT OF DIABETES WITH PENTACYCLIC TRITERPENOID SAPONIN COMPOUNDS FROM SZECHUAN MELANDIUM ROOT” (priority 2013, published 2016).

The structures appear in SMILES notation.

In the case of `CC(=O)OC1C(OC(=O)/C=C/c2ccc(C)cc2)C(C)OC(OC(=O)[C@]23CCC(C)(C)C[C@H]2C2C=C[C@@H]4[C@@]5(C)CC[C@H](OC6OC(C(=O)O)C(O)C(OC7OCC(O)C(O)C7O)C6OC6OC(CO)C(O)C(O)C6O)[C@@](C)(C=O)[C@@H]5CC[C@@]4(C)[C@]2(C)C[C@H]3O)C1OC1OC(C)C(O)C(O)C1O` (stereo partly shown) [Compound (1), sinocrassuloside VI], in the assay with KK^Ay mice [1] (2.0 mg/kg BW Sc, 2 weeks), the body weight growth entry is on record as “best effect of resistance on body weight growth”. Further, the food intake entry with KK^Ay mice [1] (after 1 week, compounds 2.0 mg/kg Sc, metformin 500 mg/kg lg) was “decreased obviously”. For the same compound, the “glycemia (fasting tail blood glucose), hypoglycemic activity” value in the assay with KK^Ay mice [2] (2.0 mg/kg BW Sc daily, after 1 week, vs model group) is recorded as “best hypoglycemic activity”. The “anti-hyperglycemia effect, compounds compared with each other” value with KK^Ay mice [2] (2.0 mg/kg BW Sc, 2 weeks, ranking) is “strongest anti-hyperglycemia effect”.
